{"source": "patent US12459973B2", "about": "“Peptide compounds for reducing side effects of CB1 receptor agonists” (priority 2019, dated 2025)", "key": {"trypsin [1]": {"tested_on": "trypsin", "assay": "in vitro", "details": "pH 8.2", "quoted_text": "(§7) A 1000 μg/1000 μL trypsin solution (Thermo Fisher Scientific) was prepared by suspending the lyophilized enzyme in 50 mM ammonium bicarbonate buffer, pH 8.2. Peptide dissolved in the same buffer (1 μg/L) was incubated with trypsin (peptide:trypsin ratio=100:1) for 24 h at 37° C. Samples were collected at various time points and digestion was stopped by addition of 20% (v/v) of 0.5% formic acid in H2O. Samples were stored at −20° C. until analyzed by reverse-phase HPLC-MS. Experiments are performed in duplicate and data were fit with GraphPad Prism."}, "in vitro": {"assay": "in vitro", "details": "mouse, bEnd.3 brain endothelioma cells", "experimental": "(§1) bEnd.3 brain endothelioma cells (ATCC® CRL-2299TM) were grown as a monolayer on 75 cm^2 T-flasks in DMEM supplemented with 10% fetal bovine serum (FBS), and 1% penicillin/streptomycin antibiotic solution (Gibco™, USA). Cells were cultured in a humidified atmosphere of 95% air and 5% CO2 at 37° C. (MCO-18AIC (UV), Sanyo, Japan), with the medium changed every other day. The cells were harvested from cell culture T-flasks when confluent with trypsin-EDTA (Gibco™, USA) and used in different assays (cell proliferation, in vitro BBB translocation and in vitro Bimolecular Fluorescence complementation).\n(§2) The in vitro cytotoxicity of the compound to be evaluated is studied using the same cell line of the in vitro BBB model, namely bEnd.3 cells, to evaluate possible toxicity. bEnd.3 cell line was exposed to increasing concentrations of the compound for 24 h.\n(§3) The assay is based on the ability of viable cells to reduce resazurin into resorufin, a highly fluorescent metabolite. Non-viable cells are not able to generate resorufin.\n(§4) Therefore, using this approach is possible to distinguish between metabolic and non-metabolic cells, and indirectly to determine the cytotoxicity of different compounds. bEnd.3 cells were seeded onto a 96-well plate (Corning, USA) at 10,000 cells/100 μL/well and incubated for 24 h. After medium removal, 100 μL of previous diluted peptides (range between 0.01-50 μM) in DMEM medium were added to the wells. After 24 h incubation, 20 μL of CellTiter-Blue® Reagent was added to each well and incubated for 3 h in a humidified atmosphere of 5% CO2 at 37° C. The fluorescence intensity was measured with an λexc=560 nm and an λem=590 nm using an Infinite F200 TECAN plate reader. Medium and 1% Triton X-100-containing medium were used as positive controls (100% cell viability) and negative controls (0% cell viability), respectively. Cell viability (%) was determined using the following equation:\n(§5) [formula] where Fp is the fluorescence intensity of peptide-treated cells, FNC is the fluorescence intensity for negative controls, and FPC is the fluorescence intensity for positive controls.\n(§6) Experiments were performed on different days using independently grown cell cultures."}, "bEnd.3 cells": {"tested_on": "bEnd.3 cells", "assay": "in vitro", "details": "bEnd.3, 24 h, 0.01-50 μM", "experimental": "as §1, §2, §3, §4, §5, §6"}, "[2]": {"biological_target": "T1, CB1R and 5-HT2AR heteromers (Homo sapiens, UniProt P28223)", "T1 construct": "expressed in transfected cells; host or cells: HEK-293T", "T1 sequence (P28223 whole entry, one chain of several)": "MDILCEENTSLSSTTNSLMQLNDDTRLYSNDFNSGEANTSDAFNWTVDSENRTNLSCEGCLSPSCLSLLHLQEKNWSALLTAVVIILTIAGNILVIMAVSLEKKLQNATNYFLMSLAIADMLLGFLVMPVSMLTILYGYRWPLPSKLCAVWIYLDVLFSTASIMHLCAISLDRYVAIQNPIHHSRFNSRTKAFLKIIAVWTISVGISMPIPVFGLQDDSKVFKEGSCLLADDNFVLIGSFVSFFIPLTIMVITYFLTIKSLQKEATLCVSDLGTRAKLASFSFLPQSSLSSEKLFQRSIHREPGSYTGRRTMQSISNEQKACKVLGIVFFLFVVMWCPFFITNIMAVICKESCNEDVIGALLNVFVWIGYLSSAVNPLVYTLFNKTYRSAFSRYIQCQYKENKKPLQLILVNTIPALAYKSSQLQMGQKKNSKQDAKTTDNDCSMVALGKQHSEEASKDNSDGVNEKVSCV", "assay": "Disruption of CB1R and 5-HT2AR heteromers by bimolecular fluorescence complementation", "assay_type": "cell-based", "details": "HEK-293T, CB1R-nYFP + 5-HT2AR-cYFP, peptide 4 μM, 4 h, 37° C.", "source_text": "The method described in “Viñals* X, Moreno* E, Lanfumey L, Cordomi A, Pastor A, de La Torre R, Gasperini P, Navarro G, Howell L A, Pardo L, Lluís C, Canela El, McCormick* P J, Maldonado* R, Robledo* P. Cognitive Impairment Induced by Delta9-tetrahydrocannabinol Occurs through Heteromers between Cannabinoid CB1 and Serotonin 5-HT2A Receptors. PLoS Biology, 13(7): e1002194 (2015)” was used with the slight modifications herein described herein to determine the in vitro capacity of the peptides to disrupt CB1R and 5-HT2AR heteromers.\nTo obtain the YFP Venus hemi-truncated proteins fused to the receptors of interest (5-HT2AR-cYFP, CB1R-nYFP), 5-HT2AR was subcloned to be in-frame with restriction sites of pcDNA3.1-cVenus, which contained the sequences encoding amino acid residues 156-238 of YFP Venus protein. Moreover, CB1R was subcloned to be in-frame with restriction sites of pcDNA3.1-nVenus, which contained the sequences encoding amino acid residues 1-155 of YFP Venus protein.\nExpression of constructs was tested by confocal microscopy and the receptor fusion protein functionality by ERK1/2 phosphorylation.\nHuman embryonic kidney (HEK-293T) cells obtained from ATCC were grown in Dulbecco's modified Eagle's medium (DMEM) (Gibco) supplemented with 2 mM L-glutamine, 100 μg/ml sodium pyruvate, 100 U/ml penicillin/streptomycin, MEM Non-Essential Amino Acids Solution (1/100), and 5% (v/v) heat inactivated fetal bovine serum (FBS) (all supplements were from Invitrogen, Paisley, Scotland, UK). Cells were maintained at 37° C. in an atmosphere of 5% CO2.\nCells growing in 6-well dishes were transiently transfected with the cDNA encoding for CB1R fused to the YFP Venus N-terminal fragment (n-YFP) and 5-HT2AR fused to the YFP Venus C-terminal fragment (c-YFP) by the PEI (PolyEthylenlmine, Sigma) method. Cells were incubated 4 h with the corresponding cDNA together with PEI and 150 mM NaCl in a serum-starved medium. After 4 h, the medium was changed to a fresh complete culture medium.\nAfter 48 h, cells were treated or not with the indicated TAT-peptides (4 μM) for 4 h at 37° C. To quantify the complemented YFP Venus expression, cells were washed twice in quick succession in HBSS with 10 mM glucose, detached, and resuspended in the same buffer. To control the cell number, sample protein concentration was determined using a Bradford assay kit (Bio-Rad, Munich, Germany) using bovine serum albumin dilutions as standards. 20 μg protein were distributed into 96-well microplates (black plates with a transparent bottom, Porvair, King's Lynn, UK), and fluorescence emission at 530 nm after the excitation at 500 nm with a Mithras LB940 (Berthold Technologies, Bad Wildbad, Germany) was recorded. Protein fluorescence was determined as fluorescence of the sample minus the fluorescence of untransfected cells (basal)."}, "trypsin [3]": {"tested_on": "trypsin", "details": "peptide remaining by HPLC, incubation with trypsin 100:1, 37° C.", "quoted_text": "as §7"}, "[4]": {"assay": "Novel object recognition test (memory)", "assay_type": "in vivo", "details": "Vehicle (IV) + THC 3 mg/kg IP, mice", "experimental": "The method described in “Puighermanal E, Marsicano G, Busquets-Garcia A, Lutz B, Maldonado R, Ozaita A. Cannabinoid modulation of hippocampal long-term memory is mediated by mTOR signaling. Nature Neuroscience, 12(9): 1152-8 (2009)” was used with the slight modifications herein described to assess the effect of the peptides on memory.\nOn day 1 (Habituation), mice were habituated for 9 min to the V-maze in which the task was performed. On the second day (Training), mice were put back in the V-maze for 9 min, two identical objects were presented and the time that the mice spent exploring each object was recorded. The mice were again placed in the maze 24 h later for 9 min (Test), one of the familiar objects was replaced with a novel object and the total time spent exploring each of the two objects (novel and familiar) was computed. Object exploration was defined as the orientation of the nose to the object at less than 2 cm. A discrimination index was calculated as the difference between the times spent exploring the novel or familiar object divided by the total time exploring the two objects. A higher discrimination index is considered to reflect greater memory retention for the familiar object as normal mice spend more time exploring a novel object than a familiar one. […]"}, "[5]": {"assay": "Hot plate test (analgesic effect)", "assay_type": "in vivo", "details": "Vehicle (IV) + THC 10 mg/kg IP, hot plate 52° C., mice", "experimental": "The method described in “Monory K, Blaudzun H, Massa F, Kaiser N, Lemberger T, Schütz G, Wotjak C T, Lutz B*, Marsicano G*. Genetic Dissection of Behavioural and Autonomic Effects of D9-tetrahydrocannabinol in Mice. PLoS Biology, 5(10): e269, 2007” was used with the slight modifications herein described to assess the analgesic effect of the peptides.\nTHC-induced analgesia was measured using a hot plate analgesia meter (Hot/Cold Plate Test, Bioseb, USA) 60 min after intraperitoneal injection (IP) of THC dissolved in an IP vehicle (5% v/v of ethanol, 5% v/v of Cremophor-EL and 90% v/v saline) or injection of the vehicle (saline plus 2% DMSO) alone and by intravenous injection 90 min after the first injection of the peptide to be tested in an IV vehicle or of the vehicle alone. […] A cut-off time of 240 s was set to prevent tissue damage."}}, "note": "Non-standard residues stand in square brackets, D forms with d. Residues, ends and D or L forms follow the SMILES beside them. No end group written: not given here.", "data": [{"compound": "CC[C@@H](C)[C@@H](NC(=O)CNC(=O)[C@@H](C)NC(=O)[C@H](NC(=O)[C@@H](Cc1ccc(O)cc1)NC(=O)[C@@H](C)NC(=O)[C@@H](Cc1ccc(O)cc1)NC(=O)[C@@H](CCSC)NC(=O)[C@@H](Cc1ccc(O)cc1)NC(=O)[C@H](NC(=O)[C@@H](CC(C)C)NC(=O)[C@H](N)Cc1c[nH]c2ccccc12)[C@H](C)CC)C(C)C)C(=O)N[C@H](CC(C)C)C(=O)N[C@H](CCCCN)C(=O)N[C@H](CCCNC(=N)N)C(=O)N[C@H](Cc1c[nH]c2ccccc12)C(N)=O", "note": "[Example 1, D-Trp-D-Leu-D-Ile-D-Tyr-D-Met-D-Tyr-D-Ala-D-Tyr-D-Val-D-Ala-Gly-D-Ile-D-Leu-D-Lys-D-Arg-D-Trp-NH2] (H-[dW][dL][dI][dY][dM][dY][dA][dY][dV][dA]G[dI][dL][dK][dR][dW]-NH2)", "values": [{"measurement": "remaining at 24 h, 1 μg/L", "setting": "trypsin [1]", "result": "83 ± 4.04", "unit": "%"}, {"measurement": "EC50 at 24 h", "setting": "in vitro", "result": "> 50", "unit": "µM"}, {"measurement": "viability at 24 h, 0.012 µM", "setting": "in vitro", "result": 98.3, "unit": "%"}, {"measurement": "viability at 24 h, 0.024 µM", "setting": "in vitro", "result": 98.3, "unit": "%"}, {"measurement": "viability at 24 h, 0.049 µM", "setting": "in vitro", "result": 98.7, "unit": "%"}, {"measurement": "viability at 24 h, 0.1 µM", "setting": "in vitro", "result": 95.4, "unit": "%"}, {"measurement": "viability at 24 h, 0.2 µM", "setting": "in vitro", "result": 100, "unit": "%"}, {"measurement": "viability at 24 h, 0.39 µM", "setting": "in vitro", "result": 102, "unit": "%"}, {"measurement": "viability at 24 h, 0.78 µM", "setting": "in vitro", "result": 98.9, "unit": "%"}, {"measurement": "viability at 24 h, 1.56 µM", "setting": "in vitro", "result": 102, "unit": "%"}, {"measurement": "viability at 24 h, 3.12 µM", "setting": "in vitro", "result": 100, "unit": "%"}, {"measurement": "viability at 24 h, 6.25 µM", "setting": "in vitro", "result": 96.6, "unit": "%"}, {"measurement": "viability at 24 h, 12.5 µM", "setting": "in vitro", "result": 104, "unit": "%"}, {"measurement": "viability at 24 h, 25 µM", "setting": "in vitro", "result": 96.6, "unit": "%"}, {"measurement": "viability at 24 h, 50 µM", "setting": "in vitro", "result": 75.7, "unit": "%"}, {"measurement": "toxicity (in words)", "setting": "bEnd.3 cells", "result": "no significant toxicity"}, {"measurement": "% vs. control (bimolecular fluorescence complementation)", "setting": "[2]", "result": 49.8, "unit": "%"}, {"measurement": "% at t = 24 h", "setting": "trypsin [3]; pH 8.2, 24 h", "result": "over 80%"}, {"measurement": "% at t = 0", "setting": "trypsin [3]; pH 8.2, t = 0", "result": "100.00 ± 2.05", "unit": "%"}]}, {"compound": "CCCCCc1cc(O)c2c(c1)OC(C)(C)[C@@H]1CCC(C)=C[C@@H]21", "note": "[THC, Δ9-tetrahydrocannabinol]", "values": [{"measurement": "Discrimination index % increase vs. control", "setting": "[4]", "result": "−52", "unit": "%"}, {"measurement": "Jumping latency % increase vs control", "setting": "[5]", "result": 71.4, "unit": "%"}, {"measurement": "Licking latency % increase vs control", "setting": "[5]", "result": 104.2, "unit": "%"}]}, {"compound": "Glu-Thr-Tyr-Leu-Met-Phe-Trp-Ile-Gly-Val-Thr-Ser-Val-Leu-Leu-Leu-Phe-Ile-Val-Tyr-Ala-Tyr-Met-Tyr-Ile-Leu-Trp-Gly-Arg-Lys-Lys-Arg-Arg-Gln-Arg-Arg-Arg-NH2 (ETYLMFWIGVTSVLLLFIVYAYMYILWGRKKRRQRRR-NH2) [Reference Example 1]", "values": [{"measurement": "% vs. control (bimolecular fluorescence complementation)", "setting": "[2]", "result": 52.2, "unit": "%"}, {"measurement": "Fluorescense units (bimolecular fluorescence complementation)", "setting": "[2]", "result": 11154, "unit": "fluorescence units"}]}, {"compound": "VYAYMYILW[dA]G[dI][dL][dK][dR][dW]-NH2 [Reference Example 2]", "values": [{"measurement": "% vs. control (bimolecular fluorescence complementation)", "setting": "[2]", "result": 63.5, "unit": "%"}, {"measurement": "Fluorescense units (bimolecular fluorescence complementation)", "setting": "[2]", "result": 13568, "unit": "fluorescence units"}]}, {"compound": "[dW][dL][dI][dY][dM][dA]G[dI][dL][dK][dR][dW]-NH2 [Reference Example 3]", "values": [{"measurement": "% vs. control (bimolecular fluorescence complementation)", "setting": "[2]", "result": 78.5, "unit": "%"}, {"measurement": "Fluorescense units (bimolecular fluorescence complementation)", "setting": "[2]", "result": 16754, "unit": "fluorescence units"}]}]}
